Patent publication US7781453B2, “Aminopyridine-derivatives” (Altana Pharma AG, priority 2003, dated 2010)

melting point [°C] | Compound
228 to 230 | Cc1cc(N)nc(CCc2nc3cc(-c4ccc(Cl)cc4)cnc3[nH]2)c1.Cl
136 | Cc1cc(N)nc(CCc2nc3cccnc3[nH]2)c1.Cl
54 | CC(=O)O.Cc1cc(N)nc(CCc2nc3cccnc3[nH]2)c1
186 | Cc1ccc(-c2cnc3[nH]c(CCc4cc(C)cc(N)n4)nc3c2)cc1.Cl
48 | Cc1cc(N)nc(CC(C)c2nc3cccnc3[nH]2)c1 (racemic) [compound 2, (R,S)-2-[3-(2-Amino-4-methylpyridin-6-yl)prop-2-yl]-3H-imidazo[4,5-b]pyridine]
45 to 47 | Cc1cc(N)nc(CCc2nc3cccnc3[nH]2)c1 [compound 1, 2-[2-(2-Amino-4-methylpyridin-6-yl)ethyl]-3H-imidazo[4,5-b]pyridine]
216 | Cc1cc(N)nc(CCc2nc3cc(Br)cnc3[nH]2)c1 [compound 4, 2-[2-(2-Amino-4-methylpyridin-6-yl)ethyl]-6-bromo-3H-imidazo[4,5-b]pyridine]
230 | Cc1cc(N)nc(CCc2nc3cc(-c4ccccc4)cnc3[nH]2)c1 [compound 5, 2-[2-(2-Amino-4-methylpyridin-6-yl)ethyl]-6-phenyl-3H-imidazo[4,5-b]pyridine]
218 | Cc1cc(N)nc(CCc2nc3cc(-c4ccc(C#N)cc4)cnc3[nH]2)c1 [compound 6, 2-[2-(2-Amino-4-methylpyridin-6-yl)ethyl]-6-(4-cyano-phenyl)-3H-imidazo[4,5-b]pyridine]
181 | Cc1cc(N)nc(CCc2nc3cc(-c4cccc(OCc5ccccc5)c4)cnc3[nH]2)c1 [compound 13, 6-{2-[6-(3-Benzyloxy-phenyl)-3H-imidazo[4,5-b]pyridin-2-yl]-ethyl}-4-methyl-pyridin-2-ylamine]
224 | Cc1cc(N)nc(CCc2nc3cc(-c4cc(Cl)cc(Cl)c4)cnc3[nH]2)c1 [compound 14, 6-{2-[6-(3,5-Dichloro-phenyl)-3H-imidazo[4,5-b]pyridin-2-yl]-ethyl}-4-methyl-pyridin-2-ylamine]
225 | Cc1cc(N)nc(CCc2nc3cc(-c4ccc(OCc5ccccc5)cc4)cnc3[nH]2)c1 [compound 15, 6-{2-[6-(4-Benzyloxy-phenyl)-3H-imidazo[4,5-b]pyridin-2-yl]-ethyl}-4-methyl-pyridin-2-ylamine]
162 | Cc1cc(N)nc(CCc2nc3cc(-c4cccc(O)c4)cnc3[nH]2)c1 [compound 16, 3-{2-[2-(6-Amino-4-methyl-pyridin-2-yl)-ethyl]-3H-imidazo[4,5-b]pyridin-6-yl}-phenol]
168 | Cc1cc(N)nc(CCc2nc3cc(-c4ccc(S(=O)(=O)N5CCC5)cc4)cnc3[nH]2)c1 [compound 17, 6-(2-{6-[4-(Azetidine-1-sulfonyl)-phenyl]-3H-imidazo[4,5-b]pyridin-2-yl}-ethyl)-4-methyl-pyridin-2-ylamine]
171 | Cc1cc(N)nc(CCc2nc3cc(-c4ccc(S(=O)(=O)N5CCCC5)cc4)cnc3[nH]2)c1 [compound 18, 4-Methyl-6-(2-{6-[4-(pyrrolidine-1-sulfonyl)-phenyl]-3H-imidazo[4,5-b]pyridin-2-yl}-ethyl)-pyridin-2-ylamine]
233 | Cc1cc(N)nc(CCc2nc3cc(-c4ccc(S(=O)(=O)N5CCCCC5)cc4)cnc3[nH]2)c1 [compound 19, 4-Methyl-6-(2-{6-[4-(piperidine-1-sulfonyl)-phenyl]-3H-imidazo[4,5-b]pyridin-2-yl}-ethyl)-pyridin-2-ylamine]
135 | Cc1cc(N)nc(CCc2nc3cc(-c4ccc(S(=O)(=O)N5CCN(C)CC5)cc4)cnc3[nH]2)c1 [compound 21, 4-Methyl-6-(2-{6-[4-(4-methyl-piperazine-1-sulfonyl)-phenyl]-3H-imidazo[4,5-b]pyridin-2-yl}-ethyl)-pyridin-2-ylamine]
